Assay results from PMC3885398, “Evaluation of the Antitumor Effects of BPR1J-340, a Potent and Selective FLT3 Inhibitor, Alone or in Combination with an HDAC Inhibitor, Vorinostat, in AML Cancer” (PLoS ONE, 2014).
“And” between values parts separate entries of the source, which are not always exact repeats. Identical values can stand only once.

How the values were obtained:
FLT3 D835Y = target: T1, FLT3 D835Y (Homo sapiens, UniProt P36888, D835Y); experiment: FLT3 phosphorylation in transfected HEK293T cells, Western blot; assay type: cell-based; design: expressed in transfected cells; host or cells: HEK293T; details: HEK293T cells expressing FLT3-D835Y, 1 hr, FLT3 ligand 50 ng/mL 5 min
T1 sequence (P36888 27-993 D835Y): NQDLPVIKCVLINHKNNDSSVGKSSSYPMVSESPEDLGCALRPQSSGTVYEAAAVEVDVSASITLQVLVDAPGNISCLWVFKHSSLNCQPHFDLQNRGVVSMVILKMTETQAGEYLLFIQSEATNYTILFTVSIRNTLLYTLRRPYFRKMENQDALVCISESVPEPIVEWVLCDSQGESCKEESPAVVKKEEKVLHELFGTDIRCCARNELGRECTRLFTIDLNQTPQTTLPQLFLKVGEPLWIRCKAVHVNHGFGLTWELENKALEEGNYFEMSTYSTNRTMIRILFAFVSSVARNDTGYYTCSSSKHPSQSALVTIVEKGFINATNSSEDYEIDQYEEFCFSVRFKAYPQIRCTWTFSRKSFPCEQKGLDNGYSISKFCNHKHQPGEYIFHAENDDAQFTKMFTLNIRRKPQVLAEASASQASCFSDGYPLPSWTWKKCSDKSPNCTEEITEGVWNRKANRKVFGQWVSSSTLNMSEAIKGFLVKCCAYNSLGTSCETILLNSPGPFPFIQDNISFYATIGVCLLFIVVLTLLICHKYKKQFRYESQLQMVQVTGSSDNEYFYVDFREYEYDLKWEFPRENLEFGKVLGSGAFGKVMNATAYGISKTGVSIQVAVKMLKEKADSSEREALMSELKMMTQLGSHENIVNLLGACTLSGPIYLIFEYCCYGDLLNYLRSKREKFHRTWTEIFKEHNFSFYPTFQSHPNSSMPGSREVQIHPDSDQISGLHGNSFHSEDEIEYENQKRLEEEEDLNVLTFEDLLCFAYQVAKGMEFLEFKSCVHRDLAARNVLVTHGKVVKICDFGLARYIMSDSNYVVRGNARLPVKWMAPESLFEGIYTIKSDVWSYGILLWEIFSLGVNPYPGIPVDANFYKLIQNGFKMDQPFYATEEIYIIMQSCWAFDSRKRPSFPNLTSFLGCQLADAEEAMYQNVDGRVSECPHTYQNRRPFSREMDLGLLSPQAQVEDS
Procedure: Cells were lysed in lysis buffer (50 mM Tris, pH 8.0, 150 mM NaCl, 1% Triton X-100, 0.5% sodium deoxycholate, 0.1% SDS, 1 mM sodium orthovanadate, 1 mM PMSF, and 1 mM DTT). Protein lysates were resolved by SDS-PAGE and transferred onto a polyvinylidene difluoride (PVDF) membrane (Millipore, Bedford, MA, USA). The membranes were immunoblotted with appropriate antibodies and detected using the SuperSignal reagent (Pierce, Rockford, IL, USA) followed by exposure to X-ray film.
To address whether BPR1J-340 was able to inhibit the FLT3 signaling pathway in FLT3-driven cells, MV4;11 cells were treated with different concentrations of BPR1J-340 for 1 hour, and the phosphorylation status of FLT3 and STAT5 (Signal Transducer and Activator of Transcription 5), a critical down-stream modulator that plays a major role in FLT3-ITD signal transduction for cell expansion and survival, was examined by Western blot analysis. […] To investigate the difference in sensitivity between FLT3-WT and the activating mutants FLT3-ITD and FLT3-D835Y to BPR1J-340, HEK293T cells engineered to express FLT3-WT or mutants FLT3 (FLT3-ITD, FLT3-D835Y) were analyzed. […]
Figure 2 BPR1J-340 inhibits FLT3-dependent signaling. […] The phosphorylation status of FLT3 and STAT5 were evaluated by Western blot analysis. […] The FLT3 phosphorylation status in the transfected cells was evaluated by Western blot analysis.

FLT4 (VEGFR3) = FLT4 (VEGFR3) (Homo sapiens, UniProt P35916); experiment: VEGFR3 Kinase-Glo kinase assay; assay type: biochemical; design: VEGFR3 (residues M800-Y1363); purchased Upstate (Billerica, MA, USA)
Chain of FLT4 (VEGFR3) (P35916 800-1363): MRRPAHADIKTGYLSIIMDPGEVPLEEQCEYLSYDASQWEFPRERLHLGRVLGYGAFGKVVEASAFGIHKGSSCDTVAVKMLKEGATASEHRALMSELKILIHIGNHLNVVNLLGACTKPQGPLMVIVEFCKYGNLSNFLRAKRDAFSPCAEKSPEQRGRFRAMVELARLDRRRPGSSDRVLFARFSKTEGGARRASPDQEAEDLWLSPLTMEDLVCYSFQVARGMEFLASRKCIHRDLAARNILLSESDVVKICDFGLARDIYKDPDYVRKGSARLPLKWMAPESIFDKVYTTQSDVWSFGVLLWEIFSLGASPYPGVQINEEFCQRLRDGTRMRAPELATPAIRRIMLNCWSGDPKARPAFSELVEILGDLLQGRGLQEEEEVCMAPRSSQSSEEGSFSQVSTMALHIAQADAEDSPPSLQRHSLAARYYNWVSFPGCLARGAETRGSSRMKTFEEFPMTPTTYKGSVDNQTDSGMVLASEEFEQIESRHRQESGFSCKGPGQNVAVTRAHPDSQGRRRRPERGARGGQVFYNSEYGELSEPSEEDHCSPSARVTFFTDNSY
Procedure: The FLT3 inhibitors, BPR1J-340 and AC220, were synthesized by our laboratory. The histone deacetylase inhibitor vorinostat (SAHA) was purchased from SelleckBio (Houston, TX, USA). All inhibitors were dissolved in dimethylsulfoxide (DMSO) at a stock concentration of 10 mM. The anti-FLT3 (sc-480, Santa Cruz Biotechnology, Santa Cruz, CA, USA), anti-pFLT3-Tyr591 (#3461, Cell Signaling Technology, Beverly, MA, USA) anti-STAT5 (#9363, Cell Signaling Technology), anti-pSTAT5–Tyr694 (#9351, Cell Signaling Technology), anti-cleaved poly ADP-ribose polymerase (PARP) (#9542, Cell Signaling Technology), anti-Mcl-1 (#4572, Cell Signaling Technology), anti-caspase 3 (#9662, Cell Signaling Technology) and anti-β-actin (Gtx110546, GeneTex, Irvine, CA, USA) antibodies were purchased for Western blotting analysis. The preparation of recombinant proteins, FLT3 (residues Y567-S993), VEGFR1 (residues R781-I1338) and VEGFR2 (residues V789-V1356), for biochemical kinase assay was described previously. The VEGFR3 (residues M800-Y1363) proteins were purchased from Upstate (Billerica, MA, USA).
The FLT3 and VEGFR1/2 Kinase-Glo kinase assays were performed as reported by our earlier study. […] The kinase inhibition profiling and inhibitory activity of FLT3-D835Y, CSF1R, and TRKA were determined by Invitrogen SelectScreen® kinase profiling service (Carlsbad, California, USA).

Question: Which results are given for CCc1cc(NC(=O)NCc2ccc(-c3cc(NC(=O)c4ccc(CN5CCN(C)CC5)cc4)[nH]n3)cc2)no1 [BPR1J-340, N1-(3-4-[([(5-ethyl-3-isoxazolyl)amino]carbonylamino)methyl]phenyl-1H-5-pyrazolyl)-4-[(4-methylpiperazino)methyl]benzamide]?
Answer: IC50 (FLT3 D835Y): 10 to 100 nM and ~100 nM; IC50 (FLT4 (VEGFR3)): 29 ± 7 nM
